Measurements from US12343339B2, “Bisaminoquinolines and bisaminoacridines compounds and methods of their use” (THE TRUSTEES OF THE UNIVERSITY OF PENNSYLVANIA, priority 2019, dated 2025).
pIC50: −log10 of the molar value. Values after ≈ are worked out from the molar mass of the structure shown. Where two headings read alike, the source gives them in different places.

Experiments:
[1] = tested on: MiaPaCa-2 cells; experiment: Cytotoxicity assay, cell proliferation (Alamar Blue); format: cell-based; settings: Homo sapiens, MIA PaCa-2, 72 h
Method: (§1) Cell Culture Protocol:— 1) Protocol for Reviving Cell Line(s) • 1. Take out the cell vials from LN2 container & thaw immediately at 37° C. • 2. Wipe it with 70% alcohol properly • 3. Transfer to sterile centrifuge tubes containing 9 ml media & spin at 1000 rpm for 5 min. • 4. Discard the supernatant & resuspend the pellet in 2-3 ml media and transfer to T-75 or T-150 culture flasks containing 15 or 30 ml media respectively. • 5. Incubate at 37° C.-5% CO2. 2) Protocol for Sub-Culturing Cell Line(s)
(§2) Cells should be sub-cultured when they reach 70-80% confluence. • 1. Discard the media from cell culture flask. • 2. Add 3 to 4 ml of TrypLE Express dissociation solution; keep in CO2 incubator for ˜5 min. Mix gently to avoid cell clumping. • 3. Add 4.0 to 5.0 ml of complete growth medium and mix gently & transfer to centrifuge tube. • 4. Centrifuge at 1000 rpm for 5 min. • 5. Discard the supernatant & re-suspend the pellet in 3-4 ml of media. • 6. Count the cells in cell counter or using hemocytometer. • 7. Split the cells in 1:2 or 1:4 ratio into new culture flasks. • 8. Incubate cultures at 37° C.-5% CO2 to get confluence 3) Protocol for Preserving Cell Line(s) • 1. Discard the spent media from the TC flask. • 2. Add 3 to 4 ml of TrypLE Express dissociation solution; keep in CO2 incubator for ˜5 min. Mix gently to avoid cell clumping. • 3. Add 4.0 to 5.0 ml of complete growth medium and mix gently & transfer to centrifuge tube. • 4. Centrifuge at 1000 rpm for 5 min. • 5. Discard the supernatant & re-suspend the pellet in 3-4 ml of media. • 6. Count the cells in cell counter or using hemocytometer. • 7. Spin at 1000 rpm for 5 min, discard the supernatant and re-suspend the pellet in 900 μl of media+100 μl of DMSO (Freeze app. 1.5 to 3 million cells/vial). • 8. Keep the vials in −80° C. overnight & transfer to LN2 container. Cell Proliferation (Alamar Blue) Assay:— • Seed cells at 2000 cells in 100 μL/well in 96-well tissue culture plate. Leave outer wells without cells for background measurements. Incubate at 37° C./5% CO2 for 16-18 hours. • Add 10× concentration compound dilution or DMSO control so that the final concentration is 1× and DMSO concentration 0.5%. Compound is prepared in 3-fold serial dilutions. Incubate for 72 h at 37° C./5% CO2. • Add Alamar Blue™ reagent to each well with multi-channel pipette and tap gently on each side of the plate to mix. Incubate for 3 hours at 37° C./5% CO2. • Read plates on fluorescence reader (Tecan i-control, 1.11.1.0, Device: infinite 200, Serial number: 810001990) at 540 nm excitation, 590 nm emission wavelength. • Data analysis using Graph pad prism Assay Acceptance Criteria • S/N Ratio should be >3. • Z′ should be >0.4

[2] = tested on: A375 cells; experiment: as above; format: cell-based; settings: Homo sapiens, A-375, 72 h
Method: (§3) Media Preparation Protocol:— • Media composition for cell preservation (4 ml): 900 μl of Hi-FBS+[…] of DMSO Complete Media Preparation (500 ml): For DLD1n& A375:
as §1, §2

[3] = tested on: DLD-1 cells; experiment: as above; format: cell-based; settings: Homo sapiens, 72 h
Method: as §3, §1, §2

[4] = Plasma stability; format: in vitro ADME; settings: 3 μM, 37° C.
Method: Stability of drug assessed in plasma to determine the percent remaining and half-life of the compound.
Assay Procedure: • 1. Fresh blood was collected in tubes containing anticoagulant (K2 EDTA) and the plasma collected by centrifugation. • 2. 3 mM of the test compound was prepared in DMSO from 20 mM main stock. • 3. 1 μL of test compound (3 mM) was incubated at 37° C. in 999 μL of plasma (3 μM final concentrations, 0.1% DMSO, final volume 1,000 μL). • 4. The reactions were terminated at 0, 30, 60 and 120 min by addition of two volumes of acetonitrile, containing IS (200 ng/mL) resulting in protein precipitation. • 5. After termination of reaction at individual time points, the samples were stored at −80±10° C. till the completion of experiment. • 6. On completion of last incubation point, all the samples were centrifuge at 14,000 rpm for 10 min. • 7. Supernatant (200 μL) from each reaction tube was taken for LC-MS/MS analysis.

[5] = Buffer stability in phosphate buffered saline; format: physicochemical; settings: PBS pH 7.4, 3 μM, 37° C.
Method: Assay Procedure: • 1. Test compound was prepared at 3 mM in DMSO from 10 mM working stock. • 2. The experiment was conducted in Phosphate buffered saline with a final concentration of 3 μM. • 3. The vials were incubated at 37° C. in a hybridization oven for respective time points. • 4. After incubation time, equal volumes of quenching solution was added. • 5. Samples were centrifuged at 14,000 rpm for 5 min at 4° C. • 6. Supernatant was transferred into vials and analyzed in HIPLC.

[6] = Kinetic solubility across pH (PBS pH 7.4, FaSSGF pH 1.6, FaSSIF pH 6.5); format: physicochemical; settings: kinetic from dmso stock
Method: Kinetic solubility method was used to determine the solubility of NCEs across pH ranges, PBS pH 7.4, FaSSGF pH 1.6 & FaSSIF pH 6.5.
Procedure • 1. Seven calibration standards (i.e. 1, 5, 10, 50, 100, 200 and 300 μM) were prepared in DMSO from the 20 mM primary stock solution. • 2. Dispensed an aliquot of 198 IL of 0.001 M PBS into duplicate wells of a multiscreen solubility filter plate. • 3. Subsequently, added 2 μL of test compound solution (20 mM primary stock solution), cover the plate and shake at 150 rotations per minute for 90 minutes. • 4. At the end of 90 minutes, samples were filtered using MultiScreen HTS vacuum Manifold assembly and the filtrate was collected into the acceptor plate. • 5. An aliquot of 150 μL of filtrate from the above 96-well acceptor plate was transferred into HIPLC vials and analyzed by HIPLC-UV.

[7] = Blood partitioning (blood to plasma ratio); format: in vitro ADME; settings: fresh pooled whole blood, fresh mouse blood, 37° C., read-out: Mice blood to plasma ratio
Method: Blood to plasma ratio defines the concentration of a drug in whole blood (that is, target drug containing both erythrocytes and plasma) to the concentration of target drug in plasma. The red blood cell partition coefficient is the ratio of the concentration of drug in the red blood cells (that is, not including plasma) to concentration of drug in plasma.
Assay Procedure: • 1. Fresh blood was collected. • 2. An aliquot of 50 μL blood was taken from individual tubes and centrifuged to check for any haemolysis. Tube with haemolysed blood was not considered for experiment. • 3. Non-haemolysed blood in individual tubes was pooled and incubated at 37° C. • 4. 999 μL aliquot of pooled blood was taken in individual tubes. One of these tubes was designated for Chloroquine (positive control). Incubations for the test compound were similarly done in other aliquot. • 5. 1 μL of test compound (0.1% DMSO concentration) or positive control solution was spiked into each of the above tubes. • 6. Above tubes were incubated at 37° C. for 30 min. • 7. Post incubation, an aliquot (˜50 μL) was taken and centrifuged to check for haemolysis. • 8. Subsequently, 100 μL of blood sample from the incubation mixture tube was transferred into a separate labeled tube and quenched with 200 μL of Acetonitrile containing Internal standard. • 9. […]

[8] = average of N1 and N2, read-out: Average pIC50 (n = 2) (converted)
[9] = replicate N1, read-out: IC50 N1
[10] = replicate N1, read-out: pIC50 N1 (converted)
[11] = replicate N2, read-out: IC50 N2
[12] = replicate N2, read-out: pIC50 N2 (converted)

Row | SMILES | IC50 [1, 8] | pIC50 [1, 9] | IC50 [1, 10] | pIC50 [1, 11] | IC50 [1, 12] | IC50 [2, 8] | pIC50 [2, 9] | IC50 [2, 10] | pIC50 [2, 11] | IC50 [2, 12] | IC50 [3, 8] | pIC50 [3, 9] | IC50 [3, 10] | pIC50 [3, 11] | IC50 [3, 12] | also measured
1 | COc1cccc2c1C(=O)c1c(O)c3c(c(O)c1C2=O)C[C@@](O)(C(=O)CO)C[C@@H]3O[C@H]1C[C@H](N)[C@H](O)[C@H](C)O1 [Doxorubicin] | 0.0891 µM | 7.00 | 0.0977 µM | 7.10 | 0.0813 µM | 0.0282 µM | 7.70 | 0.0245 µM | 7.52 | 0.0316 µM | 0.38 µM | 6.60 | 0.245 µM | 6.23 | 0.589 µM | –
2 | COc1ccc2nc3cc(Cl)ccc3c(NCCOCCN(C)CCOCCNc3c4ccc(Cl)cc4nc4ccc(OC)cc34)c2c1 [Dioxo-DQ-551] | 0.174 µM | 6.82 | 0.151 µM | 6.68 | 0.204 µM | 0.794 µM | 6.36 | 0.447 µM | 5.84 | 1.45 µM | 0.708 µM | 6.48 | 0.324 µM | 5.81 | 1.55 µM | Mouse plasma stability (% remaining @ 120 min) [4]: 88%; PBS pH 7.4 stability (% remaining @120 min) [5]: 100%; solubility at 90 min ([6]; aqueous buffer, PBS pH 7.4, 90 minutes shaking, read-out: PBS pH 7.4 solubility): 39 µM (≈ 26.9 µg/mL); solubility at 90 min ([6]; fassgf or other biorelevant, FaSSGF pH 1.6, 90 minutes shaking, read-out: FaSSGF pH 1.6 solubility): ~200 µM (≈ 138 µg/mL); solubility at 90 min ([6]; FaSSIF pH 6.5, 90 minutes shaking, read-out: FaSSIF pH 6.5 solubility): 62 µM (≈ 42.7 µg/mL); blood plasma ratio at 30 min [7]: 12.6
3 | CCN(CC)CCCC(C)Nc1c2ccc(Cl)cc2nc2ccc(OC)cc12 (stereo not drawn) [Quinacrine] | 2.51 µM | 5.57 | 2.69 µM | 5.63 | 2.34 µM | 2.24 µM | 5.89 | 1.29 µM | 5.42 | 3.8 µM | 4.37 µM | 5.60 | 2.51 µM | 5.12 | 7.59 µM | –
